Test [1] addresses T1, wild-type Androgen Receptor (AR-wt) (Homo sapiens (Human), UniProt P10275). The experiment in a line: LNCaP-AR-wt ANT reporter assay (antagonist mode). Format: cell-based. The following applies: for IC50: read-out: LNCaP-AR-wt ANT pIC50 (converted); for Emax: maximum % inhibition of R1881 control response over the tested concentration range, read-out: LNCaP-AR-wt ANT MAX % Inh. Background: Reporter assays use an easily measured gene product as a stand-in for the process of interest.

Test [2] has as its target T1, wild-type Androgen Receptor (AR-wt). The experiment in a line: LNCaP-AR-wt AG reporter assay (agonist mode). The following applies: for EC50: agonist mode, pEC50 = −Log10(EC50 in Molar), read-out: LNCaP-AR-wt AG pEC50 (converted); for Emax: maximum % stimulation (agonist response) over the tested concentration range, read-out: LNCaP-AR-wt AG MAX % Stim. Format: cell-based.

Test [3] has as its target T2, F876L mutant Androgen Receptor (AR-F876L) (Homo sapiens (Human), UniProt P10275, F877L). Nature of the test: LNCaP-AR-F876L ANT reporter assay (antagonist mode). Format: cell-based. The note with it: for IC50: read-out: LNCaP-AR-F876L ANT pIC50 (converted); for Emax: maximum % inhibition of R1881 control response over the tested concentration range, read-out: LNCaP-AR-F876L ANT MAX % Inh.

In test [4] the target is T2, F876L mutant Androgen Receptor (AR-F876L). Nature of the test: LNCaP-AR-F876L AG reporter assay (agonist mode). Format: cell-based. The following applies: for EC50: agonist mode, pEC50 = −Log10(EC50 in Molar), read-out: LNCaP-AR-F876L AG pEC50 (converted); for Emax: maximum % stimulation (agonist response) over the tested concentration range, read-out: LNCaP-AR-F876L AG MAX % Stim.

Test [5] relates to rGABA-gated Cl− channel. The experiment in a line: GABA-Gated Cl Channel Antagonist Radioligand Binding Assay. The arrangement: species or system rat. The following applies: 10 μM single point, [35S]-TBPS, cerebral cortex membrane homogenates. In short, it runs like this: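 Rat cerebral cortex membranes (120 μg protein) incubated 120 min at 22° C with 3 nM […] in 50 mM Na2HPO4/KH2PO4 pH 7.4, 500 mM NaCl; nonspecific binding defined with 20 μM picrotoxinin. Bound label counted after filtration; values are percent inhibition of specific binding at 10 μM compound.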

[6] abbreviates: antagonist mode, pIC50 = −Log10(IC50 in Molar).

From patent US10981926B2 (Janssen Pharmaceutica NV, priority 2016, dated 2021) come the findings set out here.

T2 sequence (P10275 whole entry F877L): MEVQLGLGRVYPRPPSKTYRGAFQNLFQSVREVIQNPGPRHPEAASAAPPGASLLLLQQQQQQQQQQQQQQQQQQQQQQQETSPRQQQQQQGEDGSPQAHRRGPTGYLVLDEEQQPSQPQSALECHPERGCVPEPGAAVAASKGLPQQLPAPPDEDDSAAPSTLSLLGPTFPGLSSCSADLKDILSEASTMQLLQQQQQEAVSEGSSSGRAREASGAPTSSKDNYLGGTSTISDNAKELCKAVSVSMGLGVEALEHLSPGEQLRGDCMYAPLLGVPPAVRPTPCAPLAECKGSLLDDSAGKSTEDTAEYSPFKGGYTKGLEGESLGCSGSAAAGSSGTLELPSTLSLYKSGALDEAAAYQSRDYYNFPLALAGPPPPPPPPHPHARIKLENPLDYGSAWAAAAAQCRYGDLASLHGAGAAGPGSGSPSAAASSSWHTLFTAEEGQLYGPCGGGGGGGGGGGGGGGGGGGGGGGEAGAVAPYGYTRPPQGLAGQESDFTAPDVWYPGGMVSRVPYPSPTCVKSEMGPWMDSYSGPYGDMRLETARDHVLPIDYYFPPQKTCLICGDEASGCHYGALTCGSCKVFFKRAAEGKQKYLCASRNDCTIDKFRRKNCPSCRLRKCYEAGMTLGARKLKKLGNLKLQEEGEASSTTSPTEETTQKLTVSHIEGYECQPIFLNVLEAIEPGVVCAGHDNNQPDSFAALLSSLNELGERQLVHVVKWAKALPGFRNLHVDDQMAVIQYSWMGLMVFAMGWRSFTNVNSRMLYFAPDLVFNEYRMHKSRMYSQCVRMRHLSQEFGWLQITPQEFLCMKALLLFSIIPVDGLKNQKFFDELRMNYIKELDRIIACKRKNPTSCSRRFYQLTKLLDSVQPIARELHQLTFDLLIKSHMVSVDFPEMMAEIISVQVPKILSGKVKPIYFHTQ
T1 sequence (P10275 whole entry): as the sequence (P10275 whole entry F877L) above, with L877F counted along it

For `CN1CCC(n2ncc3cc(N4C(=S)N(c5cnc(C#N)c(C(F)(F)F)c5)C(=O)C45CCC5)ccc32)CC1` [Cpd 109, 5-[8-[1-(1-methyl-4-piperidyl)indazol-5-yl]-5-oxo-7-thioxo-6,8-diazaspiro[3.4]octan-6-yl]-3-(trifluoromethyl)pyridine-2-carbonitrile], the IC50 is 2820 nM in test [1] (setting [6]) and 1350 nM in test [3] (setting [6]). For the same compound, the Emax is 96.1% in test [1], 0% in test [2], 98.8% in test [3] and 0.2% in test [4]. In addition, the EC50 in test [2] and in test [4] was greater than 15100 nM each time. Also, the “rGABA-gated Cl− channel % inh @10 μM” value in test [5] turned out to be 20.6%.
As for `N#Cc1ncc(N2C(=O)C3(CCC3)N(c3ccc(OC4CCCO4)cc3)C2=S)cc1C(F)(F)F` (stereo not drawn) [Cpd 111, 5-[5-oxo-8-(4-tetrahydrofuran-2-yloxyphenyl)-7-thioxo-6,8-diazaspiro[3.4]octan-6-yl]-3-(trifluoromethyl)pyridine-2-carbonitrile], the IC50 in test [1] (setting [6]) is 132 nM; in test [3] (setting [6]), 117 nM. Moreover, the Emax was 101% in test [1], 0.8% in test [2], 101% in test [3] and 0.4% in test [4]. For the same compound, the EC50 in test [2] and in test [4] was greater than 15100 nM each time. Moreover, the “rGABA-gated Cl− channel % inh @10 μM” value in test [5] is 2.8%.
`N#Cc1ncc(N2C(=O)C3(CCC3)N(c3ccc(C4=C[C@@H](O)[C@H](O)CO4)cc3)C2=S)cc1C(F)(F)F` [Cpd 112, 5-(5-(4-((3R,4R)-3,4-dihydroxy-3,4-dihydro-2H-pyran-6-yl)phenyl)-8-oxo-6-thioxo-5,7-diazaspiro[3.4]octan-7-yl)-3-(trifluoromethyl)picolinonitrile]: the IC50 is 269 nM in test [1] (setting [6]) and 282 nM in test [3] (setting [6]). Also, the Emax turned out to be 102% in test [1], 0.3% in test [2], 100% in test [3] and 0.2% in test [4]. Moreover, the EC50 in test [2] and in test [4] was greater than 15100 nM each time. Further, the “rGABA-gated Cl− channel % inh @10 μM” value in test [5] was found to be 99.1%.
For `N#Cc1ncc(N2C(=O)C3(CCC3)N(c3ccc4nn(C5CCNCC5)cc4c3)C2=S)cc1C(F)(F)F` [Cpd 115, 5-[5-oxo-8-[2-(4-piperidyl)indazol-5-yl]-7-thioxo-6,8-diazaspiro[3.4]octan-6-yl]-3-(trifluoromethyl)pyridine-2-carbonitrile], the IC50 in test [1] (setting [6]) is 575 nM; in test [3] (setting [6]), 288 nM. In addition, the Emax in test [1] is 87%; in test [2], -0.1%; in test [3] it was 104%; in test [4] it was 0.1%. In addition, the EC50 in test [2] and in test [4] was greater than 15100 nM throughout. The “rGABA-gated Cl− channel % inh @10 μM” value in test [5] was 40.0%.
As to `N#Cc1ncc(N2C(=O)C3(CCC3)N(c3ccc4c(cnn4C4CCNCC4)c3)C2=S)cc1C(F)(F)F` [Cpd 119, 5-[5-oxo-8-[1-(4-piperidyl)indazol-5-yl]-7-thioxo-6,8-diazaspiro[3.4]octan-6-yl]-3-(trifluoromethyl)pyridine-2-carbonitrile], the IC50 is 537 nM in test [1] (setting [6]) and 195 nM in test [3] (setting [6]). For the same compound, the Emax in test [1] came out at 102%; in test [2] it was 0.1%; in test [3], 100%; in test [4], 2.7%. Besides, the EC50 in test [2] and in test [4] was greater than 15100 nM throughout. Besides, the “rGABA-gated Cl− channel % inh @10 μM” value in test [5] is 43.1%.
For the compound `CN1CCC(Cn2cc3cc(N4C(=S)N(c5cnc(C#N)c(C(F)(F)F)c5)C(=O)C45CCC5)ccc3n2)CC1` [Cpd 129, 5-[8-[2-[(1-methyl-4-piperidyl)methyl]indazol-5-yl]-5-oxo-7-thioxo-6,8-diazaspiro[3.4]octan-6-yl]-3-(trifluoromethyl)pyridine-2-carbonitrile], the values for the IC50 in test [1] (setting [6]) and in test [3] (setting [6]) were 77.6 nM and 36.3 nM, respectively. For the same compound, the Emax in test [1] came out at 102%; in test [2] it was 0.9%; in test [3] it was 100%; in test [4] it was 0.1%. Further, the EC50 in test [2] and in test [4] was greater than 15100 nM in each case. Further, the “rGABA-gated Cl− channel % inh @10 μM” value in test [5] was 64.0%.
On to `CC(=O)N1CCC(n2ncc3cc(N4C(=S)N(c5cnc(C#N)c(C(F)(F)F)c5)C(=O)C45CCC5)ccc32)CC1` [Cpd 131, 5-[8-[1-(1-acetyl-4-piperidyl)indazol-5-yl]-5-oxo-7-thioxo-6,8-diazaspiro[3.4]octan-6-yl]-3-(trifluoromethyl)pyridine-2-carbonitrile], for which the figures for the IC50 in test [1] (setting [6]) and in test [3] (setting [6]) were 589 nM and 708 nM, respectively. Besides, the Emax in test [1] is 101%; in test [2], -0.1%; in test [3], 97.9%; in test [4], 0.3%. The EC50 in test [2] and in test [4] was greater than 15100 nM in each case. In addition, the “rGABA-gated Cl− channel % inh @10 μM” value in test [5] came out at 97.4%.
Turning to `Cn1cc(N2C(=S)N(c3cnc(C#N)c(C(F)(F)F)c3)C(=O)C23CCC3)ccc1=O` [Cpd 133, 5-(5-(1-methyl-6-oxo-1,6-dihydropyridin-3-yl)-8-oxo-6-thioxo-5,7-diazaspiro[3.4]octan-7-yl)-3-(trifluoromethyl)picolinonitrile], the IC50 is 1580 nM in test [1] (setting [6]) and 977 nM in test [3] (setting [6]). Also, the Emax in test [1] turned out to be 98.3%; in test [2] it was 0.7%; in test [3], 99%; in test [4] it was 0.6%. The EC50 in test [2] and in test [4] was greater than 15100 nM in each case. Besides, in test [5], the “rGABA-gated Cl− channel % inh @10 μM” value is −8.5%.
`C[C@@H]1OC(c2ccc(N3C(=S)N(c4cnc(C#N)c(C(F)(F)F)c4)C(=O)C34CCC4)cc2)=C[C@H](O)[C@H]1O` [Cpd 135, 5-(5-(4-((2S,3R,4S)-3,4-dihydroxy-2-methyl-3,4-dihydro-2H-pyran-6-yl)phenyl)-8-oxo-6-thioxo-5,7-diazaspiro[3.4]octan-7-yl)-3-(trifluoromethyl)picolinonitrile]: the IC50 in test [1] (setting [6]) was 389 nM; in test [3] (setting [6]), 155 nM. Moreover, the Emax in test [1] was 104%; in test [2], 0.1%; in test [3], 102%; in test [4], -0.1%. For the same compound, the EC50 in test [2] and in test [4] was greater than 15100 nM in each case. The “rGABA-gated Cl− channel % inh @10 μM” value in test [5] came out at 99.6%.
Consider `N#Cc1ncc(N2C(=O)C3(CCC3)N(c3ccc(OC4C5CCC4CNC5)cc3)C2=S)cc1C(F)(F)F` (stereo not drawn) [Cpd 138, 5-[8-[4-(3-azabicyclo[3.2.1]octan-8-yloxy)phenyl]-5-oxo-7-thioxo-6,8-diazaspiro[3.4]octan-6-yl]-3-(trifluoromethyl)pyridine-2-carbonitrile], for which the IC50 in test [1] (setting [6]) is 427 nM; in test [3] (setting [6]) it was 269 nM. For the same compound, the Emax in test [1] was 103%; in test [2], -0.1%; in test [3], 100%; in test [4], 0.1%. Besides, the EC50 in test [2] and in test [4] was greater than 15100 nM throughout. Further, the “rGABA-gated Cl− channel % inh @10 μM” value in test [5] is given as 35.6%.
For the compound `Cl.N#Cc1ncc(N2C(=O)C3(CCC3)N(c3cnc(OC4CCNCC4)nc3)C2=S)cc1C(F)(F)F` [Cpd 141, 5-{8-Oxo-5-[2-(piperidin-4-yloxy)-pyrimidin-5-yl]-6-thioxo-5,7-diaza-spiro[3.4]oct-7-yl}-3-trifluoromethyl-pyridine-2-carbonitrile], the “LNCaP-AR-wt ANT pIC50” value in test [1] (setting [6]) was found to be 6.30. Also, the Emax in test [1] is 84.9%; in test [2], -0.1%; in test [3], 66.8%; in test [4] it was 0%. For the same compound, the EC50 in test [2] and in test [4] was greater than 15100 nM each time. For the same compound, in test [3] (setting [6]), the “LNCaP-AR-F876L ANT pIC50” value worked out at 6.51. In test [5], the “rGABA-gated Cl− channel % inh @10 μM” value is on record as 56.1%.
For `CN1CCC(C(=O)c2ccc(N3C(=S)N(c4cnc(C#N)c(C(F)(F)F)c4)C(=O)C34CCC4)cc2)CC1` [Cpd 144, 5-[8-[4-(1-methylpiperidine-4-carbonyl)phenyl]-5-oxo-7-thioxo-6,8-diazaspiro[3.4]octan-6-yl]-3-(trifluoromethyl)pyridine-2-carbonitrile], the IC50 is 1100 nM in test [1] (setting [6]) and 363 nM in test [3] (setting [6]). Also, the Emax in test [1] is 98.3%; in test [2], 0.3%; in test [3] it was 99.9%; in test [4] it was 0.6%. For the same compound, the EC50 in test [2] and in test [4] was greater than 15100 nM throughout. The “rGABA-gated Cl− channel % inh @10 μM” value in test [5] is recorded as 42.3%.
